These results are taken from paper PMC5906549, “Cathelicidin-Derived Antimicrobial Peptides Inhibit Zika Virus Through Direct Inactivation and Interferon Pathway” (Frontiers in Immunology, 2018).

The subject of series [1] is ZIKV strain MR766. The series is described as follows: ZIKV RNA in infected Vero cells, peptide pre-treatment (real-time RT-PCR). In kind it is cell-based, Zika virus. The following applies: 2 h before ZIKV MOI 0.5, re-treated at 24 h, 48-h post-infection, RT-PCR normalized to GAPDH, N = 3. How it is done: Human fetal astrocytes were derived from a single-cell isolation process of fetal brain tissues as previously described ([25], [26]). Briefly, dissociated brain tissue was incubated with 0.25% trypsin for 30 min, followed by neutralization with 10% fetal bovine serum (FBS), and further dissociated by trituration. The single-cell suspension was cultured as adherent cells in DMEM/F12 (Thermo Fisher Scientific, Waltham, MA, USA), supplemented with 10% FBS, penicillin (50 units/mL), and streptomycin (50 µg/mL) (Thermo Fisher Scientific). […] Vero cells (ATCC, CCL-81), an African green monkey kidney cell line, were maintained in Dulbecco’s Modified Eagle Medium (DMEM) with 5% FBS. Experiments with ZIKV were performed exclusively inside a BioSafety Level 2 (laboratory). All procedures utilized in this study were approved by the Institutional Biosafety Committee (IBC 16-05-013BL2) and followed biosafety level II practices as shown in National Institutes of health (NIH) Guideline Appendix G-II-B. ZIKV strain MR766 (Uganda, 1947) was obtained from ZeptoMetrix Corp., Buffalo, NY, USA, and propagated in Vero cells. ZIKV infection of the Vero cells and fetal astrocytes was previously characterized ([27]) and all infections in the current studies were at the MOI of 0.5.
Total mRNA was isolated with TRIzol Reagent (Thermo Fisher Scientific) and RNeasy Mini Kit (QIAGEN Inc., Valencia, CA, USA) following the manufacturer’s recommendations. Two real-time RT-PCR methods were used for the current studies. First, SYBR Green-based RT-PCR assay was used to determine intracellular ZIKV RNA in Vero cells. For this assay, reverse transcription was performed using Verso cDNA synthesis Kit (Thermo Fisher Scientific) and 1 µg of total RNA in a 15-µL final volume. The RT-PCR analyses were performed using 7.5-µL SYBR Green PCR Master Mix (Thermo Fisher Scientific) with 0.5-µL cDNA, 1.5-µL H2O, 5.5-µL oligonucleotide primer pairs at 10 µM. […] GG-3. PCR program: 1, 50°C for 2 min; 2, 95°C for 2 min; 3, 95°C for 15 s; 4, specific annealing temperature for 15 s; 5, 72°C for 1 min. Steps 2–4 were repeated 40 times. All samples were amplified in triplicate for analysis. Relative ZIKV RNA levels were determined and standardized with a GAPDH internal control using comparative ΔΔCT method ([35]). Second, TaqMan-based RT-PCR assay was used to determine intracellular ZIKV RNA and other gene expressions in Figures 3–6 and extracellular ZIKV RNA in Figure 3. The TaqMan assay was performed in a StepOne^TM Real-Time PCR system (Thermo Fisher Scientific). Primers used for TaqMan real-time RT-PCR were all from the Thermo Fisher Scientific, which included ZIKV (forward sequence: 5-[…]-3, reverse sequence: 5- […]-3, and probe sequence: 5′-[…]-3), IFN-α2 (Hs00265051_s1), IFN-β1 (Hs01077958_s1), eukaryotic 18-s rRNA (Hs99999901_s1), β-actin (Hs99999903_m1), and GAPDH (Catalog number: 4310884E). Relative ZIKV mRNA levels were determined and standardized with a GAPDH or 18-s rRNA endogenous control using comparative ΔΔCT method ([35]). […] For ZIKV in supernatants, RNA was extracted from the supernatants through TRIzol™ LS Reagent (Thermo Fisher Scientific, 10296028) following the manufacturer’s manual. […] Quantitative genomic RNA from ZIKV (NR-1838DQ, ATCC) was used as a standard to calculate viral copies.

The nature of series [2]: Cell viability MTS assay in Vero cells. To be noted: African green monkey. How it is done:
Cell viability was examined by the CellTiter 96 ®Aqueous One Solution Cell Proliferation Assay (Promega, Madison, WI, USA). Vero cells and astrocytes were seeded into 96-well tissue culture plates (Fisher Scientific) and treated with fresh growth medium containing different concentrations of each peptide for 2 or 4 days at 37°C. At the experimental end point, MTS [3-(4,5-dimethylthiazol-2-yl)-5-(3-carboxymethoxyphenyl)-2-(4-sulfophenyl)-2H-tetrazolium] was added to the cultures and incubated for 1 h. The absorbance at 490 nm was recorded through BioTek Gen5 data analysis software (Winooski), VT, optical density (OD) values were used as a representation of cell viability.
(A) Vero cells were treated with doses of peptides ranging from 1 to 50 µM. After 24 h, the cultures were washed and treated with same doses of peptides in fresh medium for another 24 h. Cell viability was determined by a colorimetric MTS assay. Results shown are the averages ±SD of experiments performed in triplicate. Data were analyzed by non-linear regression. The EC50 was assessed for each of the antimicrobial peptides. (B) Vero cells were treated with doses of peptides ranging from 0.4 to 10 µM for 2 h then infected with ZIKV at the MOI of 0.5. After 24 h, the cultures were washed and treated with same doses of peptides in fresh medium for another 24 h. ZIKA RNA was detected in total cellular RNA through real-time RT-PCR. Data were normalized to GAPDH and presented as fold change (in log scale) compared with ZIKV group. ** p < 0.01 and *** p < 0.001, as compared with the ZIKV group without the peptide treatment (ANOVA, N = 3).
A, B) Vero cells were treated with 10 µM AMPs for 2 days or 4 days as outlined in the figure. For 4-day treatment, Vero cells were repeatedly treated with 10 µM AMPs at 2-day post-treatment. At the experimental end point, cell viability was determined by a colorimetric MTS assay CellTiter 96® AQueous One Solution Assay (Promega, Madison, WI) based on the manufacture’s instruction. Results were normalized as percentage of cell viability in control astrocytes. CTL, control. * denotes p < 0.05, ** denotes p < 0.01, *** denotes p < 0.001 as compared to the control group without peptide treatment (ANOVA, N = 3).
(In general: Tetrazolium assays rely on reduction of a dye to a coloured formazan, in cell work by metabolically active cells.)

Series [3] deals with ZIKV strain MR766. The series is described as follows: ZIKV RNA in astrocytes with recombinant IFN-α or with inhibition of type-I IFN signaling. It counts as cell-based, Zika virus. To be noted: astrocytes pretreated 2 h with anti-IFN-α neutralizing antibodies (200 neutralizing units/mL) or 1-µM fludarabine, then AMPs 2 h, ZIKV MOI 0.5; RNA at 24 h. How it is done: Total mRNA was isolated with TRIzol Reagent (Thermo Fisher Scientific) and RNeasy Mini Kit (QIAGEN Inc., Valencia, CA, USA) following the manufacturer’s recommendations. Two real-time RT-PCR methods were used for the current studies. First, SYBR Green-based RT-PCR assay was used to determine intracellular ZIKV RNA in Vero cells. For this assay, reverse transcription was performed using Verso cDNA synthesis Kit (Thermo Fisher Scientific) and 1 µg of total RNA in a 15-µL final volume. The RT-PCR analyses were performed using 7.5-µL SYBR Green PCR Master Mix (Thermo Fisher Scientific) with 0.5-µL cDNA, 1.5-µL H2O, 5.5-µL oligonucleotide primer pairs at 10 µM. […] GG-3. PCR program: 1, 50°C for 2 min; 2, 95°C for 2 min; 3, 95°C for 15 s; 4, specific annealing temperature for 15 s; 5, 72°C for 1 min. Steps 2–4 were repeated 40 times. All samples were amplified in triplicate for analysis. Relative ZIKV RNA levels were determined and standardized with a GAPDH internal control using comparative ΔΔCT method ([35]). […] Relative ZIKV mRNA levels were determined and standardized with a GAPDH or 18-s rRNA endogenous control using comparative ΔΔCT method ([35]). […] Quantitative genomic RNA from ZIKV (NR-1838DQ, ATCC) was used as a standard to calculate viral copies.

Peptide text beside a SMILES is read from it.

Consider `CC[C@H](C)[C@H](NC(=O)CN)C(=O)N[C@@H](CCCCN)C(=O)N[C@@H](CCC(=O)O)C(=O)N[C@@H](Cc1ccccc1)C(=O)N[C@@H](CCCCN)C(=O)N[C@@H](CCCNC(=N)N)C(=O)N[C@H](C(=O)N[C@H](C(=O)N[C@@H](CCC(N)=O)C(=O)N[C@@H](CCCNC(=N)N)C(=O)N[C@H](C(=O)N[C@@H](CCCCN)C(=O)N[C@@H](CC(=O)O)C(=O)N[C@@H](Cc1ccccc1)C(=O)N[C@@H](CC(C)C)C(=O)N[C@@H](CCCNC(=N)N)C(=O)N[C@@H](CC(N)=O)C(=O)N[C@@H](CC(C)C)C(=O)N[C@H](C(=O)O)C(C)C)[C@@H](C)CC)C(C)C)[C@@H](C)CC` [GI-20], for which the “ZIKV RNA compared with untreated controls” value with ZIKV strain MR766 [1] (peptide 0.4 µM) and in the series on ZIKV strain MR766 [1] (peptide 2 µM) was “significantly decreased ZIKV RNA” in each case. In addition, the EC50 at 48 h in series [2] is above 50 µM.

With `Nc1nc(F)nc2c1ncn2[C@@H]1O[C@H](CO)[C@@H](O)[C@@H]1O` [fludarabine, Fludarabine], the “Effect on GF-17- and BMAP-18-mediated ZIKV inhibition” value in the series on ZIKV strain MR766 [3] is recorded as “dampened but did not completely block”.

As to `CC[C@H](C)[C@H](N)C(=O)N[C@@H](CCCCN)C(=O)N[C@@H](Cc1c[nH]c2ccccc12)C(=O)N[C@@H](CCCCN)C(=O)N[C@@H](CCCCN)C(=O)N[C@@H](CC(C)C)C(=O)N[C@@H](CC(C)C)C(=O)N[C@@H](CCCNC(=N)N)C(=O)N[C@@H](C)C(=O)N[C@@H](C)C(=O)N[C@@H](CCCCN)C(=O)N[C@@H](CCCNC(=N)N)C(=O)N[C@H](C(=O)N[C@@H](CC(C)C)C(=O)O)[C@@H](C)CC` [DASamP2] (H-IKWKKLLRAAKRIL-OH), the “ZIKV RNA compared with untreated controls” value with ZIKV strain MR766 [1] (peptide 2 µM) is “significantly decreased ZIKV RNA”. Also, the EC50 at 48 h in series [2] is above 50 µM.

Consider `CC[C@H](C)[C@H](NC(=O)[C@H](CCCCN)NC(=O)[C@H](CCC(=O)O)NC(=O)[C@H](CCCCN)NC(=O)[C@H](CO)NC(=O)[C@H](CCCCN)NC(=O)[C@H](CCCNC(=N)N)NC(=O)[C@H](Cc1ccccc1)NC(=O)[C@H](Cc1ccccc1)NC(=O)[C@H](CC(=O)O)NC(=O)CNC(=O)[C@H](CC(C)C)NC(=O)[C@@H](N)CC(C)C)C(=O)NCC(=O)N[C@@H](CCCCN)C(=O)N[C@@H](CCC(=O)O)C(=O)N[C@@H](Cc1ccccc1)C(=O)N[C@@H](CCCCN)C(=O)N[C@@H](CCCNC(=N)N)C(=O)N[C@H](C(=O)N[C@H](C(=O)N[C@@H](CCC(N)=O)C(=O)N[C@@H](CCCNC(=N)N)C(=O)N[C@H](C(=O)N[C@@H](CCCCN)C(=O)N[C@@H](CC(=O)O)C(=O)N[C@@H](Cc1ccccc1)C(=O)N[C@@H](CC(C)C)C(=O)N[C@@H](CCCNC(=N)N)C(=O)N[C@@H](CC(N)=O)C(=O)N[C@@H](CC(C)C)C(=O)N[C@H](C(=O)N1CCC[C@H]1C(=O)N[C@@H](CCCNC(=N)N)C(=O)N[C@H](C(=O)N[C@@H](CCC(=O)O)C(=O)N[C@@H](CO)C(=O)O)[C@@H](C)O)C(C)C)[C@@H](C)CC)C(C)C)[C@@H](C)CC` [LL-37, reference compound], for which the “ZIKV RNA compared with untreated controls” value with ZIKV strain MR766 [1] (peptide 0.4 µM) and in the series with ZIKV strain MR766 [1] (peptide 2 µM) was “significantly decreased ZIKV RNA” each time.

For `CC[C@@H](C)[C@@H](NC(=O)CN)C(=O)N[C@H](CCCCN)C(=O)N[C@H](CCC(=O)O)C(=O)N[C@H](Cc1ccccc1)C(=O)N[C@H](CCCCN)C(=O)N[C@H](CCCNC(=N)N)C(=O)N[C@@H](C(=O)N[C@@H](C(=O)N[C@H](CCC(N)=O)C(=O)N[C@H](CCCNC(=N)N)C(=O)N[C@@H](C(=O)N[C@H](CCCCN)C(=O)N[C@H](CC(=O)O)C(=O)N[C@H](Cc1ccccc1)C(=O)N[C@H](CC(C)C)C(=O)N[C@H](CCCNC(=N)N)C(=O)N[C@H](CC(N)=O)C(=O)N[C@H](CC(C)C)C(=O)N[C@@H](C(=O)O)C(C)C)[C@H](C)CC)C(C)C)[C@H](C)CC` [GI-20D-form], the “ZIKV RNA compared with untreated controls” value in the series with ZIKV strain MR766 [1] (peptide 0.4 µM) and in the series on ZIKV strain MR766 [1] (peptide 2 µM) was “significantly decreased ZIKV RNA” each time. The same compound gave an EC50 at 48 h in series [2] of 4 µM.

Broadly, the EC50 is the concentration at which the effect is half-maximal.
